Experimental data from patent publication US20130203718A1 (priority 2010, published 2013).

Experiments:
hMR = target: T1, hMR (Homo sapiens, UniProt P08235); assay: APRn selectivity: transactivation in HEK293T cells transiently expressing hMR; format: cell-based; settings: mean±SEM; for MR Antagonist efficacy (%): aldosterone 10^−9 M
T1 construct: expressed in transfected cells; host or cells: HEK 293T
T1 sequence (P08235 1-984): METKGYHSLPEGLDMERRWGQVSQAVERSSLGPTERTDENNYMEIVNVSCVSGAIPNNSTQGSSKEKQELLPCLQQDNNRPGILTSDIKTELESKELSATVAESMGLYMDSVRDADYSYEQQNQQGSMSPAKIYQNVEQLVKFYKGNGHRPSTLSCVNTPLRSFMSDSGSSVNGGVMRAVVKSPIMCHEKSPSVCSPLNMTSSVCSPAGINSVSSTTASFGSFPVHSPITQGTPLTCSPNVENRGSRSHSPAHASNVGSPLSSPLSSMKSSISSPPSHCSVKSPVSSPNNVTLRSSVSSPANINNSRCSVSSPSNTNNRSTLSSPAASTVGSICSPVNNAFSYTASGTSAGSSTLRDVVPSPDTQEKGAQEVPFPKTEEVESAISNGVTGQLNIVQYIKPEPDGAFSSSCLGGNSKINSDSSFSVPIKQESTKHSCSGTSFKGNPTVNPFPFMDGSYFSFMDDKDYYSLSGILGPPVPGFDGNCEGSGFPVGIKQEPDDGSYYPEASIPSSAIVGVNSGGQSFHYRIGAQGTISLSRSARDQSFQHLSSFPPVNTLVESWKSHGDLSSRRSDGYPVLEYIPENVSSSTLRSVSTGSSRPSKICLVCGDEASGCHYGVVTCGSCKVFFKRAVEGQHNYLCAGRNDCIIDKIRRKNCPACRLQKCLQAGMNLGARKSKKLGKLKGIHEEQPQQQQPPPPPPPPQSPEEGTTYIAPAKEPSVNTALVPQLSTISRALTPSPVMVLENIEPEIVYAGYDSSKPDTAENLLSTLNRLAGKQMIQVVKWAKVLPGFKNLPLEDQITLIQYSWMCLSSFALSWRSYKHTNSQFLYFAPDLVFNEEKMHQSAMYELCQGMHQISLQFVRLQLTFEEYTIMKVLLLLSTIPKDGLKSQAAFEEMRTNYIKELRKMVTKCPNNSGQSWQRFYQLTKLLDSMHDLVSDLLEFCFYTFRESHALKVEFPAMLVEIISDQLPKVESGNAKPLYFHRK
Description: (§1) Measurement of the APRn Selectivity in HEK 293T.
(§2) The HEK-293T cells were cultured and transfected according to the method described above for the PR transactivation assays. The expression vectors pcDNA-hAR, kindly provided by G. A. Coetzee, pchGR (Hellal-Levy, C et al. FEBS Lett 1999, 464, 9), and pchMR (Fagart, J. et al. EMBO J. 1998, 17, 3317) were used for studying the ability of APRn to activate or inactivate the AR, GR and MR, respectively. For each transfection assays, 2 μg of the expression vector was used together with 7 μg of the GRE2-Luc reporter vector. Dihydrotestosterone (DHT), dexamethasone (Dex) and Aldosterone (Aldo) were selected as AR, GR and MR ligands, respectively. They were used at the concentration of 10^−9 M. The APRn agonist and antagonist efficacy for AR, GR and MR were measured as described above for PR. The results are the mean±SEM of three independent experiments.
(§3) Transfection assays were performed in HEK 293T cells by using expression vectors for the hAR, hGR and hMR and the GRE2-Luc reporter used for the PR transactivation assays.

hAR = target: T2, hAR (Homo sapiens, UniProt P10275); assay: APRn selectivity: transactivation in HEK293T cells transiently expressing hAR; format: cell-based; settings: for agonist efficacy towards hAR (in words): HEK293T, FIG. 11; for selectivity for hPR vs hAR, hGR and hMR (in words): conclusion from hAR, hGR and hMR transactivation assays
T2 construct: expressed in transfected cells; host or cells: HEK 293T
T2 sequence (P10275 1-920): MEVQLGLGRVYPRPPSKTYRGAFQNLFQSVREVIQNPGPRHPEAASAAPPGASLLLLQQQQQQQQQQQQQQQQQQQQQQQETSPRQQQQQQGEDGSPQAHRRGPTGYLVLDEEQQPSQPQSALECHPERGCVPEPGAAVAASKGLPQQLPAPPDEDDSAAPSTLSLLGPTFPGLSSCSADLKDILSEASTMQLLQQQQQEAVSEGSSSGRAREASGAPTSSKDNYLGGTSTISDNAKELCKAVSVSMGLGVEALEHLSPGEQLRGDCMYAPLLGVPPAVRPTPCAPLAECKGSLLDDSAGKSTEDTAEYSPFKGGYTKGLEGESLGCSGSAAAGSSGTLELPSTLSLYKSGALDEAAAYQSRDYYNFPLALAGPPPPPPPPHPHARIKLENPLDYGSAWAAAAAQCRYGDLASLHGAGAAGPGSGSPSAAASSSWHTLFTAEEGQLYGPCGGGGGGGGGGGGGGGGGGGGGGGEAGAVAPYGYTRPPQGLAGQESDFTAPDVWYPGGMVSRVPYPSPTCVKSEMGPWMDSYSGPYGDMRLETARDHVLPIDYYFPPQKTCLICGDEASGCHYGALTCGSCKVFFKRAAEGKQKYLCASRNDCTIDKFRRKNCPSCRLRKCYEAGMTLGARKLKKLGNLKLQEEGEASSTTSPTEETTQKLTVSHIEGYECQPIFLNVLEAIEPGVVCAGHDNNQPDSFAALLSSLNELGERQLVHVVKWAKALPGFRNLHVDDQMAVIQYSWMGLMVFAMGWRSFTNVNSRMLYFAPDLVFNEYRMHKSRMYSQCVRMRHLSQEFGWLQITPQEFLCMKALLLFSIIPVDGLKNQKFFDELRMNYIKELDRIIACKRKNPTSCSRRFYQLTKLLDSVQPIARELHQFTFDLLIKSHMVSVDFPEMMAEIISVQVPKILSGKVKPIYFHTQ
Description: as §1, §2, §3

CC(=O)[C@H]1CC[C@H]2[C@@H]3CC=C4C[C@@H](F)CC[C@]4(C)[C@H]3CC[C@]12C [APR-16, 3β-Fluoropregn-5-en-20-one]
MR Antagonist efficacy (%) (hMR): −2.7 ± 3.3%
MR Agonist efficacy (%) (hMR): 0.53 ± 0.05%
agonist efficacy towards hAR (in words) (hAR): low agonist efficacy
selectivity for hPR vs hAR, hGR and hMR (in words) (hAR): selective hPR antagonists

C[C@@H]1CCC2C3CC=C4C[C@@H](F)CC[C@]4(C)C3CC[C@]2(C)[C@H]1F (stereo partly drawn) [APR-19, 3β,17α-Difluoro-17α-methyl-D-Homo-pregn-5-ene]
MR Antagonist efficacy (%) (hMR): −1.0 ± 3.5%
MR Agonist efficacy (%) (hMR): 0.57 ± 0.07%

CC#C[C@]1(O)CCC2C3CC[C@H]4CCCC[C@]4(C)C3CC[C@@]21C (stereo partly drawn) [APR-42, 17α-(1-Propynyl)-5α-androstan-17β-ol]
MR Antagonist efficacy (%) (hMR): 0.4 ± 2.6%
MR Agonist efficacy (%) (hMR): 0.57 ± 0.05%
agonist efficacy towards hAR (in words) (hAR): low agonist efficacy
selectivity for hPR vs hAR, hGR and hMR (in words) (hAR): selective hPR antagonists

C[C@]12CCC3C(CC=C4C[C@@H](F)CC[C@@H]43)C1CCC2=O (stereo partly drawn) [APR-47, 3β-Fluoro-19-nor-androst-5-en-17-one]
MR Antagonist efficacy (%) (hMR): 2.2 ± 2.1%
MR Agonist efficacy (%) (hMR): 0.50 ± 0.14%
agonist efficacy towards hAR (in words) (hAR): low agonist efficacy
selectivity for hPR vs hAR, hGR and hMR (in words) (hAR): selective hPR antagonists

CC#C[C@]1(O)CCC2C3CC[C@H]4CCCC[C@@H]4C3CC[C@@]21C (stereo partly drawn) [APR-54, 17α-(1-Propynyl)-19-nor-5-androstan-17β-ol]
MR Antagonist efficacy (%) (hMR): 3.4 ± 6.2%
MR Agonist efficacy (%) (hMR): 0.53 ± 0.11%
